# ChEMBL document CHEMBL3046069, “Anti-inflammatory effects of two new methyl and morpholine derivatives of diphenhydramine on rats” (2012)
# Calls of active or inactive are those of the source. The calls are words filed in the database; no cut-off is given here.
# Experiments:
# Rattus norvegicus [1] = test: Anti-inflammatory activity in Rattus norvegicus Wistar (rat) assessed as cotton pellet-induced dry weight of granuloma administered 7 days post cotton pellet implantation measured on day 8 (reference value: […]); type: functional
# Rattus norvegicus [2] = test: Anti-inflammatory activity in Rattus norvegicus Wistar (rat) assessed as inhibition of acetic acid-induced dye extrusion into peritonial cavity administered 30 min prior to acetic acid challenge measured after 30 min by Evans blue dye-based spectrophotometric analysis relative to control; type: functional
# Rattus norvegicus [3] = test: Anti-inflammatory activity in Rattus norvegicus Wistar (rat) assessed as inhibition of […]-induced ear edema administered 30 min prior to […] challenge measured after 30 min by Evans blue dye-based spectrophotometric analysis relative to control; type: functional, organism-based
# Rattus norvegicus [4] = test: Anti-inflammatory activity in Rattus norvegicus Wistar (rat) assessed as inhibition of formalin-induced dye extrusion from plantar surface of paws at 25 mg/kg, ip administered 30 min prior to formalin challenge measured after 30 min by Evans blue dye-based spectrophotometric analysis; type: functional; conditions: route intraperitoneal
# Rattus norvegicus [5] = test: Anti-inflammatory activity in Rattus norvegicus Wistar (rat) assessed as inhibition of histamine-induced dye extrusion from plantar surface of paws at 25 mg/kg, ip administered 30 min […] measured after 30 min by Evans blue dye-based spectroscopic analysis; type: functional; conditions: route intraperitoneal
# Rattus norvegicus [6] = test: Anti-inflammatory activity in Rattus norvegicus Wistar (rat) assessed as inhibition of histamine-induced paw edema at 25 mg/kg, ip administered 30 min […] measured at 1 hr relative to control; type: functional; conditions: route intraperitoneal
# Rattus norvegicus [7] = test: Anti-inflammatory activity in Rattus norvegicus Wistar (rat) assessed as inhibition of formalin-induced paw edema at 25 mg/kg, ip administered 30 min prior to formalin challenge measured at 1 hr relative to control; type: functional; conditions: route intraperitoneal
Structure (SMILES),Activity (Rattus norvegicus [1]),inhibition (INH) (Rattus norvegicus [2]),inhibition (Rattus norvegicus [3]),inhibition in vivo at 25 mg/kg (Rattus norvegicus [4]),inhibition in vivo at 25 mg/kg (Rattus norvegicus [5]),inhibition (Rattus norvegicus [2]),inhibition in vivo at 25 mg/kg (Rattus norvegicus [6]),inhibition in vivo at 25 mg/kg (Rattus norvegicus [7])
Cc1ccc(C(OCCN2CCOCC2)c2ccc(C)cc2)cc1,71 mg,63.26%,inactive,60%,60%,,,
CN(C)CCOC(c1ccccc1)c1ccc(Br)cc1 (configuration not stated) [BROMODIPHENHYDRAMINE],,,inactive,,,Active,22.4%,14.3%
Cc1ccc(C(OCCN(C)C)c2ccc(C)cc2)cc1 [DI(P-TOLYL)(DIMETHYLAMINOETHOXY)METHANE],73.2 mg,65.3%,inactive,66.7%,57.1%,,40.8%,34.7%
CN(C)CCOC(c1ccccc1)c1ccccc1 [DIPHENHYDRAMINE],76.2 mg,,,,,,,
